From US12678498B2, “FGFR/PD-1 combination therapy for the treatment of cancer” (ASTEX THERAPEUTICS LTD, priority 2015, dated 2026)

What was measured:
[1] = test system: peripheral blood mononuclear cells (PBMCs) from normal donors; assay: Immune cell viability of PBMCs by CellTiter-Glo; assay type: cell-based; conditions: increasing concentrations up to 1 μM, days 1, 2, 5 and 6
Procedure: To determine the effects of JNJ427564493 on immune cell viability in vitro, peripheral blood mononuclear cells (PBMCs) from normal donors were stimulated with anti-CD3 antibodies to activate T cells, in the presence of increasing concentrations of JNJ42756493. Unstimulated PBMCs were also included to determine if JNJ42756493 affected unactivated immune populations. Cell viability was assessed at four different time points, over 6 days.

[2] = test system: PBMCs from CMV-reactive donors stimulated with CMV antigen; assay: Cytomegalovirus antigen assay (CMV), IFN-γ in supernatant by MSD; assay type: cell-based; conditions: JNJ42756493 alone at 100, 1 or 0.01 nM; 6 days after treatment
Procedure: FIG. 5 illustrates the effect of JNJ42756493 on IFN-γ levels induced by anti-PD-1 antibodies in a Cytomegalovirus antigen assay (CMV) Assay. Peripheral blood mononuclear cells (PMBCs) were stimulated with CMV antigen and treated with anti-PD-1 antibodies (concentration left to right—30, 10, 3.33, 1.11, 0.37, 0.12 nM) as indicated. JNJ42756493 was added at 100, 1, or 0.01 nM alone (concentrations left to right), together with anti-PD-1 antibodies (100, 1, or 0.01 nM JNJ42756493 together with 30, 10, 3.33, 1.11, 0.37, or 0.12 nM of anti-PD-1 antibody), or in the presence of isotype control (IC). 6 days after treatment, IFN-γ levels in the supernatant were measured by MSD.
In the CMV assay, PBMCs from CMV-reactive donors were stimulated by the addition of CMV antigen. CMV-reactive T cells are active, expand and secrete pro-inflammatory cytokines such as IFN-γ. […] In contrast, JNJ42756493 alone had no impact on cytokine levels (FIG. 5, JNJ-493 alone).

Compound: COc1cc(OC)cc(N(CCNC(C)C)c2ccc3ncc(-c4cnn(C)c4)nc3c2)c1 [JNJ42756493, N-(3,5-dimethoxyphenyl)-N′-(1-methylethyl)-N-[3-(1-methyl-1H-pyrazol-4-yl)quinoxalin-6-yl]ethane-1,2-diamine]
- cell viability (luminescence signal) ([1]; PBMCs stimulated with anti-CD3 antibodies): remained constant
- cell viability (luminescence signal) ([1]; unstimulated PBMCs): remained constant
- cytokine (IFN-γ) levels [2]: no impact
